We go through four molecules from patent US20130158024A1, “TRICYCLIC NECROSTATIN COMPOUNDS” (priority 2005, published 2013).

Entries after “also recorded” stand apart in the source; their conditions may differ.

Series [1] deals with SH-SY5Y cells. The series can be described thus: MPP+ cytotoxicity in SH-SY5Y neuroblastoma cells in the presence of zVAD, ATP assay. It counts as cell-based, human. As to conditions: zVAD 100 μM, compound 30 μM, 72 hours. How it is done:
FIG. 15 is a chart showing that necrostatins attenuate MPP^+ cytotoxicity in human SH-SY5Y neuroblastoma cells. Cells were treated with 5 mM MPP^+ in the presence or absence of 100 μM zVAD.fmk and 30 μM necrostatins for 72 hours, followed by an ATP assay. Values represent cell viability normalized to the corresponding compound treated controls not treated with MPP^+.
(§1) FIG. 35A is a graph showing the results of treating SH-SY5Y cells with 1 mM MPP+ in the presence of zVAD (100 μM) and compound (19) (30 μM) for 72 hours. Cell viability was determined using an ATP assay. FIG. 35B is a graph as in FIG. 35A, in which cells were treated in the presence of 100 μM amyloid-beta 25-35 protein rather than MPP+.

A further series deals with Jurkat T cells. The series can be described thus: Necrosis (CICD) of Jurkat T cells induced by Fas ligand, cycloheximide and zVAD, ATP assay. It counts as cell-based, human. Conditions: FasL/CHX/zVAD. Here is the method: Jurkat cells were treated with 5 ng/ml of FasL without (A) or with cyclohexamide (CHX) (B) to induce apoptosis, or 5 ng/ml FasL, 1 μg/ml of CHX and 100 μM of zVAD.fmk to induce CICD (B). […] Cell viability was determined after 24 hours of incubation with indicated reagents using CellTiter-Glo ATP assay. The values represent viability relative to the control Jurkat cells without the treatment of FasL, which was set as 100% viability.
FIG. 34A is a graph showing the results of treating Jurkat T cells with Fas ligand (5 ng/ml), cyclohexamide (1 μg/ml) and zVAD (100 μM) in the presence of the indicated amounts of anti-necrotic compounds (4) and (5). Viability was determined 36 hours later using an ATP assay. The viability values are relative to the samples lacking Fas ligand, which were used as 100% viability controls. FIG. 34B is a graph as in FIG. 34A, in which the anti-necrotic compounds are (19) and (20).
Compounds were also tested in another necrosis assay utilizing human Jurkat T cells, Fas ligand to induce cell death, and zVAD to inhibit the apoptosis pathway. After 36 hours, cell viability was measure by the commercial CellTiter ATP cell viability assay (Promega).

Series [2] concerns SH-SY5Y cells. Kind of series: Amyloid-beta 25-35 toxicity in SH-SY5Y cells in the presence of zVAD, ATP assay. Conditions: 100 μM amyloid-beta 25-35, zVAD 100 μM, compound 30 μM, 72 hours. It counts as cell-based, human. How it is done: as §1
To further verify that (19) can protect neuronal cells from necrosis, it was tested using two different neurotoxins in the human neuroblastoma cell line SH-SY5Y in the presence of zVAD. Cell death was induced by β-amyloid, a cellular model of Alzheimer's disease, and […] (MPP+), a cellular model of Parkinson's disease.

For the next series, the system named is L929 cells. Kind of series: TNFα-induced CICD of L929 cells, ATP assay. The class given is cell-based, mouse. Conditions: no caspase inhibitor. Here is the method: Cell viability was determined using ATP-Lite-M ATP assay (Packard). The values represent viability relative to the control lacking TNFα, which was set as 100% viability.
Cell viability in this and subsequent panels was determined by ATP-based viability assay. Numbers represent percentages of the live cells normalized to those in the untreated control wells. Throughout, error bars represent standard deviations. […] Numbers represent viability normalized to that of the corresponding compound-treated cells in the absence of FasL. […] Numbers represent viability normalized to that of the corresponding compound-treated cells in the absence of dimerizer. […] Cells were treated with TNFα (E, F, H), zVAD.fmk (E, F), or CHX (F) for 16 (F) or 24 (E, H) hours. Numbers represent viability normalized to that of the compound-treated cells in the absence of TNFα.

For the next series, the system named is BALB/c 3T3 cells. The series can be described thus: CICD of BALB/c 3T3 cells induced by TNFα/zVAD.fmk. It counts as cell-based, mouse.
Series [3] has as its system FADD-deficient Jurkat T cells treated with TNF-α. Kind of series: Inhibition of necroptosis (CICD) in FADD-deficient Jurkat T cells treated with TNF-α, ATP-based viability. It counts as cell-based, human. As to conditions: FADD-deficient Jurkat cells, TNFα.
The next series deals with primary cortical neurons. The series can be described thus: Oxygen-glucose deprivation (OGD) induced death of primary cortical neurons, MAP2 cytoblot. Conditions: OGD 90 minutes, 24 hours recovery; 30 μM. It counts as cell-based. Here is the method: Cells were allowed to recover in the presence of the compounds (except for the CNQX/MK801) for 24 hours, and specific neuronal viability was determined using MAP2 cytoblot. Values represent the percentages of live cells normalized to the compound treated cells, which were maintained in glucose-containing, non-deoxygenated media. **—P<0.02. […] Cells were allowed to recover in the presence of the compounds for 24 hours, and specific neuronal viability was determined using MAP2 cytoblot. Values represent the percentages of live cells normalized to the compound treated cells, which were maintained in glucose-containing, non-deoxygenated media. **—P<0.04.

The next series deals with CD8+ cells. Kind of series: Activation and proliferation of CD8+ cytotoxic T lymphocytes (CTL) suppressed by zVAD.fmk. It counts as cell-based, mouse. Conditions: 100 μM zVAD.fmk, 30 μM compound. Here is the method:
Numbers of cells were determined using FACS analyses. Cell numbers are normalized to the number of cells in unstimulated control, which was set as 100%. […] Cells were stained with αCD8^+-FITC antibody (Pharmingen) and CD8^+ cell numbers were determined by FACS. Cell numbers are normalized to the number of cells in unstimulated control, which was set as 100%. Percentages of dead cells (line) was determined by co-staining cells with propidium iodide.
Values represent fold increase over unstimulated control.
Cells were stained with αCD8^+-FITC antibody (Pharmingen), and CD8^+ cell numbers were determined by FACS. Cell numbers are normalized to the number of cells in unstimulated control, which was set as 100%. Percentages of dead cells (line) were determined by co-staining cells with propidium iodide.

In the next series the target is T1, RIP1 (Homo sapiens, UniProt Q13546).
T1 construct: RIP has been immunoprecipitated (IP) from lysates of WT and RIP-deficient Jurkat cells using agarose-conjugated anti-RIP antibody; endogenous in cells; host or cells: Jurkat (wild type)
T1 sequence (Q13546 whole entry): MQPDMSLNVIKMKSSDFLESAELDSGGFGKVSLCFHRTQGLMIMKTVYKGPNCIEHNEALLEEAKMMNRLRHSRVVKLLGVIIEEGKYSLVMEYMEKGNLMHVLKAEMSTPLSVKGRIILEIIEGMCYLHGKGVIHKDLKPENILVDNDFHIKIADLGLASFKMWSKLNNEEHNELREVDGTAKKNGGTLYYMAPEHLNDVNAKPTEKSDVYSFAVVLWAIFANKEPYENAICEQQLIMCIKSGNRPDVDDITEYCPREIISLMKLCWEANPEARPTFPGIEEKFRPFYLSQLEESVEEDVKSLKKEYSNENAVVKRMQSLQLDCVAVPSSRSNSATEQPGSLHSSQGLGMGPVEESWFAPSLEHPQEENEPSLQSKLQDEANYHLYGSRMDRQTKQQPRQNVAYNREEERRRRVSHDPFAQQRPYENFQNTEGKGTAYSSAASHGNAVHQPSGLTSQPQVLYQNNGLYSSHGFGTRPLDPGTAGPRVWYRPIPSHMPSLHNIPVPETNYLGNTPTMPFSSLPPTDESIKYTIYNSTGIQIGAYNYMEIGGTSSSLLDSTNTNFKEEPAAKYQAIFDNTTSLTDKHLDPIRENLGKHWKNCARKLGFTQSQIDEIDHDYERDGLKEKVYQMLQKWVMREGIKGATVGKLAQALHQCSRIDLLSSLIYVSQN
Kind of series: In vitro kinase assay: autophosphorylation of immunoprecipitated RIP1. The class given is biochemical. Conditions: radioactive ATP, 30 min at 30° C., autoradiography.

Series [4] deals with Jurkat cells expressing dimerizable FADD. Kind of series: Toxicity of compound alone in Jurkat cells expressing dimerizable FADD (no dimerizer). Conditions: compound in the absence of dimerizer.
Series [5] shares this test system. As to conditions: Homo sapiens, Jurkat, 36 h.

Broadly, the EC50 is the concentration at which the effect is half-maximal. A low value points to an effect from little substance.

On to `COc1ccc([C@H]2[C@H]3CCc4ccc(OC)cc4C3=NN2C(C)=O)cc1` (relative stereo) [Compound 141, (3R,3aR)-rel-2-acetyl-3,3a,4,5-tetrahydro-3-(4-methoxyphenyl)-8-methoxy-2H-benz[g]indazole], for which, in the series with SH-SY5Y cells [1], the “attenuation of MPP+ cytotoxicity, in words” value was “effective in reducing toxicity as measured by cellular ATP levels”. Further, in the series with Jurkat T cells, the “inhibition of CICD/necrosis of Jurkat cells, in words” value is “efficiently inhibit necrosis and result in high cell viability”. In addition, in the series with SH-SY5Y cells [2], the “reduction of β-amyloid toxicity in SH-SY5Y, in words” value is listed as “effective in reducing toxicity as measured by cellular ATP levels”.

For the molecule `CCCNC(=O)[C@H]1O[C@@H]1C(=O)N[C@H](C(=O)N1CCC[C@H]1C(=O)OC)[C@@H](C)CC` [Ca-074-Me, reference compound], the “protection of L929 cells from TNFα-induced CICD, in words” value with L929 cells was “neither these compounds nor geldanamycin work in L929 cells”. For the same molecule, the “inhibition of CICD/necrosis of Jurkat cells, in words” value in the series with Jurkat T cells was “inhibits CICD in Jurkat and 3T3 cells”. In addition, the “inhibition of CICD in 3T3 cells, in words” value with BALB/c 3T3 cells is “inhibits CICD in Jurkat and 3T3 cells”.

For `O=C1NC(=S)NC1Cc1c[nH]c2ccccc12` (stereo not shown) [Nec-1i], in [3], the “antinecroptotic (anti-CICD) activity, in words” value is “does not inhibit CICD in vitro; also recorded: completely abolished antinecroptotic activity”. Further, the “protection from OGD-induced neuronal death, in words” value with primary cortical neurons is on record as “failed to rescue neuronal cell death”. Moreover, the “restoration of CTL activation/proliferation suppressed by zVAD.fmk, in words” value in the series with CD8+ cells is reported as “does not affect T cell proliferation; also recorded: failed to restore T cell proliferation”. In addition, the “inhibition of RIP1 autophosphorylation, in words” value on RIP1 is recorded as “showed significantly reduced activity in inhibiting RIP1 autophosphorylation”.

As to `Cc1cc(O)c(C(=O)/C=C/c2ccc(O)c([N+](=O)[O-])c2)c(=O)o1` [Nec-2], in the series on SH-SY5Y cells [1], the “attenuation of MPP+ cytotoxicity, in words” value was “especially pronounced in case of Nec-2”. The LD50 in series [4] stood at 134 µM. In [5], the EC50 amounted to 27.3 µM.
